In one assay the test system is Jurkat T-cells. Briefly: Transwell transmigration of Jurkat T-cells to HepG2CM fractions, with inhibitors. The assay is classed as cell-based, human. The conditions noted are these: Jurkat cells pretreated, 100 μM for 15 minutes.
In the next assay the test system is CD8+CD45RA+ T-cells. Briefly: Transwell transmigration assay with recombinant HIV-1IIIB gp120 and inhibitors. The assay is classed as cell-based, human. The conditions noted are these: cells pretreated with inhibitor. The protocol: Purified T-cell and thymocyte subpopulations (5×10^4 cells) were added to the upper chamber of each well in a total volume of 150 μl of IMDM alone.
(§1) Cells were pretreated with anti-CXCR-4 (Pharmingen, San Diego, Calif.) at 20 μg/ml for 30 minutes at room temperature, pertussis toxin (PTX) (100 ng/ml for 1 hour at 37° C.), genistein (1 μg/ml for 20 minutes at 37° C.), herbimycin ([…] for 20 minutes 37° C.), wortmannin (1 μM for 20 minutes at 37° C.), 8-Br-cAMP (100 μM for 15 minutes at room temperature) or 8-Br-cGMP (100 μM for 15 minutes at room temperature) (Sigma Chemical Company, St Louis, Mo.) prior to their addition to the upper chambers of the transwells in selected experiments. Transwells prepared in this way were incubated for 3 hours at 37° C./5% C02 incubator. Cells were harvested from the lower chamber after 3 hours and cell counts performed using a hemocytometer.

Assay [1] has as its system T-cell subpopulations moving toward or away from SDF-1α. Briefly: Inhibitor pretreatment of T-cells in SDF-1α transwell transmigration assay. The class given is cell-based, human. To be noted: cells pretreated with inhibitor; for effect on chemotaxis to SDF-1α: peak chemotaxis at 100 ng/ml SDF-1α; for effect on fugetaxis from SDF-1α: peak fugetaxis at 1 or 10 μg/ml SDF-1α. The protocol: Three chemotaxis assays were used in this study. First, quantitative chemotaxis transmigration assays were performed using a transwell system (Corning Inc., NY) (6.5 mm diameter, 5 μm pore size, polycarbonate membrane) as previously described^13. Purified T-cell and thymocyte subpopulations (5×10^4 cells) were added to the upper chamber of each well in a total volume of 150 μl of IMDM alone. […] Cells were pretreated with pertussis toxin (PTX) 100 ng/ml for 1 hour, genistein (1 μg/ml for 20 minutes), herbimycin (1 μM for 20 minutes) or wortmannin (1 μM for 20 minutes) (Sigma Chemical Company, St Louis, Mo.) in a tissue culture incubator at 37° C. and 5% CO2 prior to their addition to the upper chambers of the transwells in selected experiments.
Transwells prepared in this way were incubated for 3 hours at 37° C., 5% CO2 incubator. Cells were harvested from the lower chamber after 3 hours and cell counts, immunophenotype and CXCR-4 chemokine receptor expression determined.
as §1

The subject of assay [2] is human T-cell subpopulations. Briefly: Transmigration of human T-cells to KSHV-infected cell supernatants and chemokines. The assay is classed as cell-based. An excerpt:
We examined the chemotactic and fugetactic responses of human T-cell subpopulations and KSHV specific CTL clones to the KSHV proteins vMIP-I and vMIP-II and serum free supernatants from two cell-lines well known in the art that are chronically infected by KSHV and derived from human tumors, lines BCBL-1 and VG-1. BCBL-1 is a B cell line derived from a body cavity-based B lymphoma that is latently infected with HHV-8/KSHV; no EBV DNA is present in this line (Renne, R., W. et al., Nat. Med., 1996, 2:342-346).
FIG. 7: Transmigration of human T-cells to supernatants derived from cell lines which are chronically infected with KSHV (FIG. 7A: BCBL-1, and FIG. 7B:VG-1).
Fugetactic (black bars) and chemotactic (striped bars) migratory responses are shown.

Description for Jurkat T-cells: The HepG2 cell line (derived from a human hepatocarcinoma-ATCC no:HB-8065, ATCC, Manassas, Va.) was grown to confluency in MEM+10% heat inactivated fetal calf serum+penicillin/streptomycin+L-glutamine. Confluent HepG2 cells were then transferred into serum free medium for 48 hours and the serum free conditioned medium (HepG2CM) was harvested from these cultures. HepG2CM was filtered through a 0.4 μm filter prior to use in transmigration assays or in the Fugetaxin separation system detailed below.
200 ml of HepG2CM were loaded onto a 5-ml HiTrap heparin column (Pharmacia) equilibrated with 10 mM Na phosphate, pH 7. The column was eluted with step increasing concentration of NaCl. […] A cation exchange column, HiTrap Sp Sepharose (Pharmacia), was used as a second step of purification. The active fraction from the Heparin column was dialysized against 50 mM MES, pH6.4 and loaded onto a 1-ml HiTrap Sp column equilibrated with 50 mM MES, pH6.4. The column was then eluted with a linear gradient of NaCl concentration. • 3. […] The active fraction eluted from the HiTrap Sp column in the previous step was then dialysized with 20 mM Tris, pH8.0 and further fractionated using a MonoQ HR5/5 column (Pharmacia). The column was then eluted with a linear gradient of NaCl concentration.
We examined the biology of the fugetactic activity of Fraction 18 with in vitro and in vivo transmigration assay systems. […]

With `Nc1nc2c(nc(Br)n2[C@@H]2O[C@@H]3COP(=O)(O)O[C@H]3[C@H]2O)c(=O)[nH]1` [8-Br-cGMP], the “inhibition of fugetaxis induced by Fraction 18” value in the assay with Jurkat T-cells is “did not significantly inhibit fugetaxis”.
`Nc1ncnc2c1nc(Br)n2[C@@H]1O[C@@H]2COP(=O)(O)O[C@H]2[C@H]1O` [8-Br-cAMP]: the “effect on movement away from HIV-1IIIB gp120” value in the assay with CD8+CD45RA+ T-cells was “differentially sensitive to inhibition”. The “inhibition of fugetaxis induced by Fraction 18” value in the assay on Jurkat T-cells worked out at 95%. Also, in assay [1], the “effect on chemotaxis to SDF-1α” value is “not chemotaxis” and the “effect on fugetaxis from SDF-1α” value was “inhibited fugetaxis”.
As for `O=c1c(-c2ccc(O)cc2)coc2cc(O)cc(O)c12` [genistein], in assay [1], the “effect on chemotaxis to SDF-1α” value is recorded as “inhibited chemotaxis” and the “effect on fugetaxis from SDF-1α” value is given as “minimal effect on fugetaxis”.
For `CO[C@H]1[C@@H](OC)C[C@H](C)[C@@H](OC)C2=CC(=O)C=C(NC(=O)/C(C)=C/C=C\[C@H](OC)[C@@H](OC(N)=O)/C(C)=C/[C@@H]1C)C2=O` [herbimycin], in that order: “inhibited chemotaxis” and “minimal effect on fugetaxis”.

B1: vMIP-II: KSHV-encoded human chemokine homologue (protein, UniProt Q98157 21-94, looked up)
Viral macrophage inflammatory …: GDTLGASWHRPDKCCLGYQKRPLPQVLLSSWYPTSQLCSKPGVIFLTKRGRQVCADKSKDWVKKLMQQLPVTAR
B1: in assay [2] (100 ng/ml), the “fugetactic response of T-cells” value is given as “not”.

B2: MIP-1α: human chemokine (protein, UniProt P10147 24-92, looked up)
C-C motif chemokine 3: SLAADTPTACCFSYTSRQIPQNFIADYFETSSQCSKPGVIFLTKRSRQVCADPSEEWVQKYVSDLELSA
For the molecule B2, in assay [2] (10 ng/ml), the “chemotactic response of T-cell subsets” value was “clear chemotactic response”.

These data come from patent publication US7775469B2, “Purposeful movement of human migratory cells away from an agent source” (The General Hospital Corporation, priority 1999, dated 2010).
